Laboratory results from US6548543B1, “Remedies or preventives containing cyclopentenone compounds as the active ingredient” (Takara Shuzo Co., Ltd., priority 1998, dated 2003).

Tested on: spleen lymphocytes stimulated with Ehrlich ascites carcinoma cells
Assay: Cancer cell-specific proliferation of spleen lymphocytes from treated tumor-bearing mice
Assay type: in vivo, ddY mice
Conditions: for 3H-thymidine uptake: 10 mg/kg intraperitoneal
Description: ddY mice (female, 7 weeks old) were purchased from Japan SLC and pre-bred 1 week before using in experiments.
1×10^6 Ehrlich ascites carcinoma cells were intraperitoneally inoculated to each mouse. 10 mg/kg of cyclopentene, 30 mg/kg of GM or 10 mg/kg of dipropionylcyclopentene was intraperitoneally administered to the mouse on the day after the inoculation. Saline was administered to a control mouse.
A spleen was taken out from the mouse 10 days after the inoculation with cancer cells, finely minced and suspended in RPMI-1640 medium (Gibco) containing 10% FCS (HyClone) to obtain a single cell suspension. Adhesive cells in the cell suspension adhered to a plastic Petri dish were removed and non-adhesive cells were used as spleen lymphocytes.
The spleen lymphocytes were suspended in RPMI-1640 medium containing 10% FCS at a concentration of 2×10^6/ml. 100 μl/well of the suspension was seeded into a microtiter plate.
Stimulated cells were prepared as follows. Mitomycin C (Kyowa Hakko Kogyo) was added to a concentration of 50 μg/ml to Ehrlich ascites carcinoma cells suspended in RPMI-1640 medium at a concentration of 2×10^6 cells/ml. The cells were treated at 37° C. for 30 minutes, washed twice and then suspended in RPMI-1640 medium containing 10% FCS to prepare stimulated cells at a concentration of 2×10^6 cells/ml. 100 μl of the thus prepared stimulated cells was overlaid onto each well of the plate into which 100 μl/well of the spleen lymphocytes had been added. The plate was incubated at 37° C. for 5 days in a 5% CO2 incubator. 37 kBq of ^3H-thymidine (Daiichi Pure Chemicals) was added to the well to pulse-label the cells on the day before the completion of the cultivation. After cultivation, the cells were harvested on a glass filter to measure the radioactivity.

CCC(=O)OC1C=CC(=O)C1OC(=O)CC (stereo not drawn)
3H-thymidine uptake (no stimulation with cancer cell): 9250 CPM
3H-thymidine uptake (stimulation with cancer cell): 20748 CPM
Growth of spleen lymphocytes on stimulation with cancer cells (statement) (mice administered intraperitoneally): significantly enhanced
